# Reference: patent publication US20120095058A1, “Method of preventing survival of retrovirally cells and of inhibiting formation of infectious retroviruses” (priority 2003, published 2012)
# Assays:
# [1] = tested on: HIV-1 molecular clone pNL4-3-Luc E-; test: Firefly luciferase reporter in full-length HIV-1 molecular clone pNL4-3-Luc E-, 293T cells; type: cell-based, human; conditions: 30 μM, 12 hours post-transfection, FIG. 1C left
# Description: (§1) (C) Specificity of inhibition by CPX. Cells were co-transfected with 500 ng pNL4-3-Luc E-, or with 100 ng of HIV-1 LTR-firefly luciferase reporter plasmid and 20 ng of pRSV-Tat, together with 100 ng of CMV-Renilla luciferase reporter plasmid. Buffer (Control), 30 μM ciclopirox (CPX), or 30 μM Princeton 2 (P2) was added during transfection, and cells were harvested at 12 hours post-transfection for luciferase assay. Results are presented as the ratio of firefly luciferase to Renilla luciferase, normalized to the controls, with standard deviations indicated.
# (§2) Cells and plasmids. 293T cells were grown in Dulbecco's Modified Eagle's medium with 10% fetal bovine serum. pBSIIKS+HIV(+80-341) was constructed by subcloning the PCR-amplified HIV-1 sequence corresponding to nucleotides +80 to +341 of the HIV molecular clone (pNL4-3-Luc E-) between the SmaI and HindIII sites of the pBluescriptllKS+ vector (Stratagene, Calif.). Plasmids pSP-rluc and pCMV-Renilla were purchased from Promega (Madison, Wis.). The plasmids pRSV-Tat and pLTR-firefly luciferase were described earlier (Hogue et al. MCB 2003). The HIV-1 molecular clone pNL4-3-Luc E-, in which part of the Nef gene is replaced by firefly luciferase and the envelope gene is mutated (Chen B. K., J. Virol. 1994), was generously supplied by Dr. D. Baltimore.
# (§3) Gene expression assays. […]
# uninfected lymphocytes = test: Apoptosis of uninfected lymphocytes by TUNEL flow cytometry; type: cell-based, human; conditions: for apoptosis of lymphocytes harvested from healthy volunteers: exposed for 20 hours
# Description: (§4) Methods: The drug deferiprone (DEF) and ciclopirox (CPX), known as DOHH inhibitors, were compared to the chelators 2-imidazoyl-4-methylphenol (IMP) and desferal (DES). Apoptosis of HIV-1 infected H9 cells, HPV-16 infected SiHa cells, and uninfected lymphocytes was analyzed by TUNEL flow cytometry. DOHH) activity was measured by metabolic labeling with 3H-spennidine.
# [2] = tested on: HIV-1 spliced and unspliced transcripts; test: RNase protection assay of spliced and unspliced HIV-1 transcripts in transfected 293T cells; type: cell-based, human; conditions: 30 μM, FIG. 1A
# Description: (§5) (A, B) Inhibition of accumulation of spliced and unspliced HIV transcripts. Human 293 T cells were co-transfected with plasmids carrying the HIV-1 molecular clone (10 μg) and a CMV-Renilla luciferase construct (2 μg). Ciclopirox (CPX) or Princeton 2 (P2) were added to a final concentration of 30 μM 3 hours later. RNA was isolated from nuclear and cytoplasmic fractions at 15 hours after transfection. RNase protection assays used probes for the HIV-1 major splice donor site sequence (A), and Renilla luciferase (B). Arrows indicate the positions of protected probe fragments corresponding to unspliced (US) and spliced (S) HIV-1 RNA and Renilla luciferase (R-Luc). Lanes marked ‘Probe’ contain undigested probe RNA equivalent to 10% of the input to protection assays. The radioactivity of the protected bands, quantified with a phosphoimager using ImageQuant, is expressed in relative units.
# (§6) Cells and plasmids. 293T cells were grown in Dulbecco's Modified Eagle's medium with 10% fetal bovine serum. pBSIIKS+HIV(+80-341) was constructed by subcloning the PCR-amplified HIV-1 sequence corresponding to nucleotides +80 to +341 of the HIV molecular clone (pNL4-3-Luc E-) between the SmaI and HindIII sites of the pBluescriptllKS+ vector (Stratagene, Calif.). Plasmids pSP-rluc and pCMV-Renilla were purchased from Promega (Madison, Wis.). […]
# [3] = molecular target: T1, deoxyhypusine hydroxylase (DOHH) (Homo sapiens, UniProt Q9BU89); test: DOHH activity in HIV-1 infected H9 cells by metabolic labeling with 3H-spermidine; type: cell-based; parameters: inhibition of DOHH: dose or concentration left out as unconfirmed; conditions: for concentration with complete suppression of DOHH activity: H9 cells; for inhibition of cellular DOHH: HIV-1 infected H9 cells, dose dependence
# T1 construct: endogenous in cells; host or cells: HIV-1 infected H9 cells
# T1 sequence (Q9BU89 1-302): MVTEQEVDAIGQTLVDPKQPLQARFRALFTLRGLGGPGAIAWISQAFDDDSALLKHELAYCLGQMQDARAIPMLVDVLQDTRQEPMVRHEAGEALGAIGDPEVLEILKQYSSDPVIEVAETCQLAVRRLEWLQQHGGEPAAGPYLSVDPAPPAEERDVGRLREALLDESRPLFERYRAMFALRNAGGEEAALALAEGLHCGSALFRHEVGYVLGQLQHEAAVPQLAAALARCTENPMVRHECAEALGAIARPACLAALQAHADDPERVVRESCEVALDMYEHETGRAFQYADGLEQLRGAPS
# Description: as §4
# DOHH activity was measured by metabolic labeling with radioactive spermidine (see FIG. 2), followed by protein hydrolysis\ and amino acid analysis as reported (Hanauske-Abel et al., FEBS Left. 366, 92-98, 1995, which is hereby incorporated by reference). This finding corroborates the results obtained with purified DOHH (FIG. 3) and is consistent with the findings presented in FIG. 1.
# [4] = tested on: CMV-Renilla luciferase transcript; test: RNase protection assay of CMV-Renilla luciferase transcript in transfected 293T cells; type: cell-based, human; conditions: 30 μM, FIG. 1B
# Description: as §5, §6
# patient-isolate of HIV-1 [5] = test: HIV-1 p24 and RNA formation in fresh peripheral blood mononuclear cells acutely infected with a patient isolate; type: cell-based, human; conditions: acutely infected PBMC
# Description: This system is considered a close model for the actual infection of a human being by ‘wild-type’ HIV-1.
# [6] = tested on: HPV-16 infected SiHa cells; test: Apoptosis of HPV-16 infected SiHa cells by TUNEL flow cytometry; type: cell-based, human
# Description: as §4
# [7] = tested on: HIV-1 LTR-firefly luciferase reporter; test: HIV-1 LTR-firefly luciferase reporter with pRSV-Tat, 293T cells; type: cell-based, human; conditions: 30 μM, compared to control and P2, FIG. 1C right
# Description: as §1, §2, §3
# purified DOHH = molecular target: T2, purified DOHH (Homo sapiens, UniProt Q9BU89); test: Inhibition of purified DOHH with labeled deoxyhypusine-containing eIF5A substrate; type: biochemical; conditions: FIG. 3
# T2 sequence (Q9BU89 1-302): T1 sequence (Q9BU89 1-302)
# Description: The assay was conducted by using purified enzyme and offering deoxhypusine-containing, deoxhypusine-labeled eIF5A as substrae, plus the appropriate cofactors (see FIG. 2). Enzyme activity was assessed by determining the amount of mature, ie. radioactive hypusine-containing eIF5A via protein hydrolysis, followed by amino acid analysis.
# [8] = tested on: peripheral blood mononuclear cells acutely infected with HIV-1; test: Apoptosis in fresh peripheral blood mononuclear cells acutely infected with a patient isolate of HIV-1; type: cell-based, human; conditions: preferentially when acutely infected with HIV-1, FIG. 8
# Description: This effect is ascribed to the suppression of retroviral antiapoptotic proteins as part of the general suppression of retroviral protein synthesis, as exemplified by the decrease in p24 (FIG. 6).
# HIV-1 = test: p24 formation in HIV-1-infected H9 cells by immunoassay; type: cell-based, human; conditions: FIG. 5
# [9] = molecular target: T1, deoxyhypusine hydroxylase (DOHH); test: DOHH activity in HPV-16 infected SiHa cells by metabolic labeling with 3H-spermidine; type: cell-based; parameters: inhibition of DOHH: dose or concentration left out as unconfirmed; conditions: for inhibition of DOHH: HPV-positive SiHa cells
# Description: as §4
# HIV-1 infected H9 cells = test: Apoptosis of HIV-1 infected H9 cells by TUNEL flow cytometry; type: cell-based, human; conditions: for initiation of apoptosis: HIV-1 infected lymphocyte cell line H9, dose dependence; for apoptosis at maximal concentration: H9 cells, IMP 400 μM, DES 20 μM
# Description: as §4
# patient-isolate of HIV-1 [10] = test: HIV-1 p24, RNA and proviral DNA in peripheral blood mononuclear cells chronically infected with a patient isolate; type: cell-based, human; conditions: FIG. 9
# Description: The double y-axis plot of FIG. 9 summarizes the effect of deferiprone on HIV protein synthesis (p24 [left y-axis]), HIV RNA synthesis (copies [right y-axis]), and the presence of HIV DNA, integrated as provirus into the genome of the infected host cells. The cell system and mode of infection used are the same as in FIGS. 6 to 8, i.e. freshly isolated peripheral blood mononuclear cells infected with a patient-isolate of HIV-1, except that the compound was added only after the full-blown infection had developed. The design requires the addition of uninfected cells very second day, so as to keep the infection from burning out. […] The near-eradication of provirus is attributed to the selective apoptotic ablation of HIV-infected cells by DOHH inhibitors (see FIG. 8).
molecule,measurement,setting,value
"Cc1cc(C2CCCCC2)n(O)c(=O)c1 [ciclopirox, 6-cyclohexyl-l-hydroxy-4-methyl-2(1H)-pyridone]",expression of firefly luciferase reporter encoded in full-length genomic HIV-1 clone,[1],distinctly more inhibitory effect than P2
same,expression of firefly luciferase reporter encoded in full-length genomic HIV-1 clone,[1]; listed as Ciclopirox,reduces gene expression
same,apoptosis in native human lymphocytes not infected by HIV-1,uninfected lymphocytes,does not trigger apoptosis
same,apoptosis of lymphocytes harvested from healthy volunteers,uninfected lymphocytes,failed to respond with apoptosis
same,accumulation of spliced and unspliced HIV-1 transcripts,[2],selectively suppresses
same,concentration with complete suppression of DOHH activity,[3],40 µM
same,inhibition of cellular DOHH,[3],dose-dependent inhibition
same,inhibition of cellular DOHH,[3]; listed as (2),dose-dependent inhibition
same,inhibition of cellular DOHH,[3]; listed as CPX,inhibited DOHH
same,transcript accumulation encoded by cytomegalovirus (CMV),[4],does not affect transcript accumulation
same,formation of retroviral p24 protein,patient-isolate of HIV-1 [5]; FIG. 6,efficient in suppressing
same,"formation of retroviral RNA, viral load","patient-isolate of HIV-1 [5]; PCR, FIG. 7",efficient in suppressing
same,apoptosis in HPV infected human keratinocytes,[6],does not trigger apoptosis
same,apoptosis in SiHa cells,"[6]; 40 μM, even after 120 hours",did not initiate apoptosis
same,luciferase gene expression from HIV-1 LTR reporter lacking RRE,[7],did not reduce luciferase gene expression
same,inhibition of purified DOHH,purified DOHH,disctinctly more susceptible to inhibition
same,apoptosis in PBMC,[8],triggers apoptosis
same,retroviral protein synthesis assessed via p24,HIV-1,suppressed retroviral protein synthesis
same,DOHH activity of SiHa cells,[9]; 40 μM,totally suppressed
same,inhibition of DOHH,[9]; dose dependence,inhibited DOHH
same,"apoptosis, share of all cells","HIV-1 infected H9 cells; 40 μM, 18 hours (overnight), HIV-1 infected H9 cells",more than 30%
same,initiation of apoptosis,HIV-1 infected H9 cells,dose-dependent initiation of apoptosis
same,initiation of apoptosis,HIV-1 infected H9 cells; listed as CPX,triggered dose-dependent apoptosis
same,potency in causing a very similar spectrum of effects,HIV-1 infected H9 cells; comparison compound class not given,about ten times more potent
Cc1c(O)c(=O)ccn1C [deferiprone],apoptosis of lymphocytes harvested from healthy volunteers,uninfected lymphocytes,failed to respond with apoptosis
same,HIV protein synthesis (p24),patient-isolate of HIV-1 [10]; compound added after full-blown infection,undetectable
same,HIV DNA integrated as provirus,patient-isolate of HIV-1 [10]; end of experiment,at best a trace of integrated provirus
same,HIV RNA,patient-isolate of HIV-1 [10]; over the days after p24 became undetectable,dropped to the limit of detection
same,concentration with complete suppression of DOHH activity,[3],200 µM
same,inhibition of cellular DOHH,[3],inhibited DOHH
same,inhibition of DOHH,[9]; dose dependence,inhibited DOHH
same,initiation of apoptosis,HIV-1 infected H9 cells,triggered dose-dependent apoptosis
CC(=O)N(O)CCCCCNC(=O)CCC(=O)N(O)CCCCCNC(=O)CCC(=O)N(O)CCCCCN [DES],apoptosis of lymphocytes harvested from healthy volunteers,uninfected lymphocytes,failed to respond with apoptosis
same,apoptosis at maximal concentration,HIV-1 infected H9 cells,failed to elicit apoptosis
2-imidazoyl-4-methylphenol [IMP],inhibition of DOHH,[3]; HIV-positive H9 cells,uniformly ineffective
same,inhibition of DOHH,[9],uniformly ineffective
same,apoptosis at maximal concentration,HIV-1 infected H9 cells,failed to elicit apoptosis
